Test results as given in ChEMBL document CHEMBL3124761, “Synthesis and biological evaluation of N,N'-squaramides with high in vivo efficacy and low toxicity: toward a low-cost drug against Chagas disease” (J Med Chem, 2014).
The source made the active and inactive calls. The rule behind the calls is not given here.

What was measured:
Vero = assay: Cytotoxicity against African green monkey Vero cells assessed as cell viability after 72 hrs by propidium iodide/fluorescein diacetate staining-based flow cytometric analysis; details: Chlorocebus sabaeus
[1] = Selectivity index, ratio of IC50 for African green monkey Vero cells to IC50 for amastigote stage of Trypanosoma cruzi IRHOD/CO/2008/SN3 infected in African green monkey Vero cells; format: toxicity, cell-based; details: read-out: Ratio IC50
Trypanosoma cruzi [2] = assay: Antitrypanosomal activity against amastigote stage of Trypanosoma cruzi IRHOD/CO/2008/SN3 infected in African green monkey Vero cells assessed as parasite growth inhibition after 72 hrs by Giemsa staining-based microscopic analysis; format: functional, organism-based; details: IRHOD/CO/2008/SN3, Vero
Trypanosoma cruzi [3] = assay: Antitrypanosomal activity against epimastigote stage of Trypanosoma cruzi IRHOD/CO/2008/SN3 assessed as parasite growth inhibition after 72 hrs by Neubauer hemocytometric chamber analysis; format: functional, organism-based; details: IRHOD/CO/2008/SN3, 72 h
[4] = Selectivity index, ratio of IC50 for African green monkey Vero cells to IC50 for epimastigote stage of Trypanosoma cruzi IRHOD/CO/2008/SN3; format: toxicity, cell-based; details: read-out: Ratio IC50
Trypanosoma cruzi [5] = assay: Trypanocidal activity against metacyclic trypomastigote stage of Trypanosoma cruzi infected in BALB/c albino mouse acute chagas disease model assessed as reduction of parasite burden at 25 mg/kg, ip administered on day 7 to 12 post-infection measured on day 14 by ELISA; format: functional, organism-based; set-up: dose 25 mg/kg
Trypanosoma cruzi [6] = assay: (§1) Antitrypanosomal activity against amastigote stage of Trypanosoma cruzi IRHOD/CO/2008/SN3 infected in African green monkey Vero cells assessed as reduction of amastigote number per cell at IC25 preincubated for 12 hrs followed by compound washout measured every 48 hrs for 10 days by Neubauer hemocytometric chamber analysis relative to control; format: functional
Trypanosoma cruzi [7] = assay: as §1, with “trypomastigote” for “amastigote”, “IRHOD/CO/2008/SN3” for “IRHOD/CO/2008/SN3 infected in African green monkey Vero cells”, “mililiter of culture medium” for “cell”; format: functional
Trypanosoma cruzi [8] = assay: as §1, with “decrease in infection rate” for “reduction of amastigote number per cell”; format: functional
Trypanosoma cruzi [9] = assay: Trypanocidal activity against metacyclic trypomastigote stage of Trypanosoma cruzi infected in BALB/c albino mouse acute chagas disease model assessed as inhibition of parasitemia at 25 mg/kg, ip administered on day 7 to 12 post-infection measured every 2 days until day 40 […] relative to control; format: functional; details: route intraperitoneal

Compound | IC50 (Vero) [µM] | selectivity ratio [1] | IC50 (Trypanosoma cruzi [2]) [µM] | IC50 (Trypanosoma cruzi [3]) [µM] | selectivity ratio [4] | Activity (Trypanosoma cruzi [5]) | inhibition (INH) (Trypanosoma cruzi [6]) [%] | inhibition (INH) (Trypanosoma cruzi [7]) [%] | inhibition (INH) (Trypanosoma cruzi [8]) [%] | inhibition in vivo at 25 mg/kg (Trypanosoma cruzi [9]) [%]
CCCCNc1c(NCCCC(=O)O)c(=O)c1=O | 21.6 | 0.3 | 66.9 | 17.3 | 1.2 | – | – | – | – | –
CCCCNc1c(NCC(=O)O)c(=O)c1=O | 54.8 | 2.3 | 23.8 | 35.7 | 1.5 | – | – | – | – | –
CN1CCCNc2c(c(=O)c2=O)NCCCN(C)CCCNc2c(c(=O)c2=O)NCCC1 | 111 | 3.5 | 31.2 | 21.8 | 5.1 | – | – | – | – | –
O=c1c(NCc2ccccc2)c(NC2CCN(Cc3ccccc3)CC2)c1=O | 338 | 9.7 | 34.7 | 96.9 | 3.5 | – | – | – | – | –
C[N+](C)(C)CCNc1c(NCc2ccccc2)c(=O)c1=O | 74.2 | 1.9 | 39.2 | 60.8 | 1.2 | – | – | – | – | –
O=C(Cn1ccnc1[N+](=O)[O-])NCc1ccccc1 [BENZNIDAZOLE] | – | – | – | – | – | Active | 15 | 21 | 20 | 26
CCCCCCCCCCCCCCCCNc1c(NCC[N+](C)(C)C)c(=O)c1=O | 151 | 5.7 | 26.3 | 44.9 | 3.4 | – | – | – | – | –
CN(C)CCCNc1c(NCCCNc2c(NCCCN(C)C)c(=O)c2=O)c(=O)c1=O | 11.4 | 0.2 | 46 | 96.2 | 0.1 | – | – | – | – | –
NCc1ccc(Nc2c(O)c(=O)c2=O)cc1 | 36.6 | 0.5 | 72.6 | 89.1 | 0.4 | – | – | – | – | –
